Results from patent US4211764A, “Gastric secretion stimulation with 2-amino-5-(2-aminoethyl)-1,3,4-thiadiozole” (priority 1978, dated 1980).
Structures can show the parent of a compound that is named as a salt. Where two headings read alike, the source gives them in different places.

Legend:
gastric secretion [1] = conditions: cited from earlier work; for secretory effect per os: introduced per os, clinical conditions, inactivated by the liver and enzymes
gastric secretion [2] = assay type: in vivo, human; conditions: hypodermic or intramuscular
Source text: (§1) Special attention was paid to side effects and the reproductibility of the secretory response after repeated administrations of the drug.
The clinical investigation also helped to determine effective doses of the proposed preparation for submaximum and maximum tests and different forms of administration.

[3] = Physical properties of the dichlorohydrate; assay type: physicochemical
Source text: The dichlorohydrate of this compound is white-yellowish crystalline powder. […] Solution of this compound in 0.01 M of hydrochloric acid at a concentration of 10^-4 M has a characteristic absorption spectrum in the UV range with a maximum of 245±±1 nanometers.

H1 -receptors = biological target: T1, H1 -receptors (Cavia porcellus, UniProt P31389); assay: Contraction of isolated ileum; conditions: guinea pig ileum; read-out: pD2 value in relation to H1 -receptors (converted)
T1 construct: from tissue; host or cells: isolated guinea pig ileum
T1 sequence (P31389 whole entry): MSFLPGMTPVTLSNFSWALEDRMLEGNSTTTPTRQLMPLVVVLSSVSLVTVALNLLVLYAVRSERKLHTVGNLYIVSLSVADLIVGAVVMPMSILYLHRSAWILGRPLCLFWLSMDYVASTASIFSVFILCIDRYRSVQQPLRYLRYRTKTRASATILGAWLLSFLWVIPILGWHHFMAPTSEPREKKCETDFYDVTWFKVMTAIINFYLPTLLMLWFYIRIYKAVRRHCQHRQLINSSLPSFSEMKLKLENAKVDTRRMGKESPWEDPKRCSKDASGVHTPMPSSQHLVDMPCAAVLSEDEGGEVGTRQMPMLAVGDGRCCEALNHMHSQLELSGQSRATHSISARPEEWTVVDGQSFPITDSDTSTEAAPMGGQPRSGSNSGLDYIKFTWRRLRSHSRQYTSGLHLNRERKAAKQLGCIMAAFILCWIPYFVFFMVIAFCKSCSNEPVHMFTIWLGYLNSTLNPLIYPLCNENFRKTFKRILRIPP

[4] = cited from earlier work
arterial pressure [5] = assay: Arterial pressure in anesthetized cats; conditions: in vivo, iv, 0.1 mg/kg
Protocol: These experiments were performed on 11 cats weighing 2.5 to 4.0 kg and anesthetized with urethane-chlorazol mixture containing 60 mg/kg of chlorazol and 600 mg/kg of urethane. The arterial pressure was measured in the common carotid artery with the aid of a mercury pressure gauge.

H2 -ceptors = H2 -ceptors (Canis lupus familiaris, UniProt P17124); assay: Gastric secretion in dogs with gastric fistula, intramuscular injection; conditions: animal (dog)
H2 -ceptors, sequence (P17124 whole entry): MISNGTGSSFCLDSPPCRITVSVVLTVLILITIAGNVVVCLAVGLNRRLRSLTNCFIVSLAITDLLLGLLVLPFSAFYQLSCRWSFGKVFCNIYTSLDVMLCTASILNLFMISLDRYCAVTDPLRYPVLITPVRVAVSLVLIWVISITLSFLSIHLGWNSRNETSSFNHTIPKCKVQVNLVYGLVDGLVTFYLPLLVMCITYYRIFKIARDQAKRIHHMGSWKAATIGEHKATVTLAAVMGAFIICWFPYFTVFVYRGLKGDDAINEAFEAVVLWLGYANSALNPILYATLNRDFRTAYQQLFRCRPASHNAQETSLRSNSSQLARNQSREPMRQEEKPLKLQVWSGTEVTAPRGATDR
Protocol: (§2) Chronic experiments were performed on male dogs weighing 20 to 25 kg and having a gastric fistula; prior to experiments, the animals were starved for 18 hours.
The gastric juice was analyzed for titratable acidity and proteolytic activity. The hydrochloric acid output was calculated in milliequivalents (mEq) and that of pepsin in milligrams.

dog's stomach = assay: Gastric secretion in dogs, administration per os; assay type: in vivo; conditions: thidazine 100 mg per head (parenterally and per os), histamine 10 and 20 mg, histalog 50 and 100 mg
Protocol: as §2

[6] = tested on: cardiovascular system (hypotension); conditions: relative to histamine; cited from earlier work
H2 -receptors [7] = biological target: H2 -receptors (Rattus norvegicus, UniProt P25102); conditions: uterus horn
H2 -receptors (Rattus norvegicus, UniProt P25102), sequence (P25102 whole entry): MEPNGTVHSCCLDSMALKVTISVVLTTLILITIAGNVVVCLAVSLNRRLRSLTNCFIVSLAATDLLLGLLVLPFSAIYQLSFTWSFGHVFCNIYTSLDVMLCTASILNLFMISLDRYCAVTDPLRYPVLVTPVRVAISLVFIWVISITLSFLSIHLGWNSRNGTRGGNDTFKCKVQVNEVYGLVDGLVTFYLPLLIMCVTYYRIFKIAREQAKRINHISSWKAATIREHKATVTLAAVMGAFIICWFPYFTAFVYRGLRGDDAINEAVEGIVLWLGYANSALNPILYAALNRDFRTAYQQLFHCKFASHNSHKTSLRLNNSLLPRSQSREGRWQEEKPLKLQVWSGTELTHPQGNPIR
Protocol: Contractions of an isolated horn of uterus of a rat due to the effect of acetylcholine in a concentration of 1.10^-6 M were recorded on a paper tape.

H2 -receptors [8] = biological target: T2, H2 -receptors (Cavia porcellus, UniProt P47747); assay: Heart rate of isolated auricles; conditions: isolated guinea pig auricles; read-out: pD2 value, H2 -receptors (heart rate) (converted)
T2 construct: from tissue; host or cells: isolated guinea pig auricles (atria)
T2 sequence (P47747 whole entry): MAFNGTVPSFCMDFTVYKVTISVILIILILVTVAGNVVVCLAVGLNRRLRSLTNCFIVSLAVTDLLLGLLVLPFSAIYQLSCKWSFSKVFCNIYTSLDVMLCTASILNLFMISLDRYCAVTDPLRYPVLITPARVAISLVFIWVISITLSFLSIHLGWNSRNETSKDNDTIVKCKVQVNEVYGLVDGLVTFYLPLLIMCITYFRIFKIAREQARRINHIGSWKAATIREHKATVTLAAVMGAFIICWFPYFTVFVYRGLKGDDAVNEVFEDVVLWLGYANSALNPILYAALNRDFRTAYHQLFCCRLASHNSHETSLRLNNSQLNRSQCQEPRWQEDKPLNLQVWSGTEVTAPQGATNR
Protocol: Changes in the heart rate were measured, dose-response curves were plotted, and pD2 values were calculated.

[9] = tested on: gastric secretion of patients; assay: Clinical comparison of thidazine with simple histamine test; assay type: in vivo, human; conditions: 20 patients; thidazine 1.5 mg/kg parenteral, histamine 0.01 mg/kg; >0.05
Source text: as §1

total acidity = assay: Clinical reproducibility of secretory response (total acidity); assay type: in vivo, human; conditions: 0.01 mg/kg hypodermic
Source text: as §1
Reproducibility of Secretory Response to Introduction
of Thidazine and Histamine with Reference to Total
Acidity Values (each group of patients includes 10 persons)
^(x) Percentage of difference is the relationship of the difference
between the total acidity values registered in the first and second tests
of a patient to the greater of these values.

[10] = tested on: gastric secretion of patients with duodenal ulceration; assay: Clinical comparison in patients with duodenal ulceration; assay type: in vivo, human
Source text: as §1
Histamine and Pentagastrin Upon Main Gastric Secretion
Characteristics of Patients With Duodenal Ulceration

arterial pressure [11] = assay: Arterial pressure in rabbits; conditions: intravenous, thidazine 0.1 mg/kg, equimolar doses of histamine and histalog
Protocol: In a series of experiments of 18 rabbits weighing 2.5 to 3.5 kg, each having the common carotid artery in a cutaneous flap, the preparations were injected intravenously.

H2 -receptors [12] = assay: Prevention of thidazine-induced gastric secretion by an H2 -antagonist; assay type: in vivo, dog; conditions: dogs, methiamide 30 mg/kg before thidazine 2 mg/kg intramuscular
[13] = tested on: gastric secretion of patients of middle age group; assay: Clinical test: effects of maximum doses upon gastric secretion of patients; assay type: in vivo, human; conditions: for Hourly HCl output: 15 observations
Source text: as §1

**Q.** With `Cc1[nH]cnc1CCN` [5-methylhistamine] as the molecule, how does the “secretory effect per os” value (gastric secretion [1]) read?
**A.** no secretory effect is produced

**Q.** Which “dose for maximum secretion test” value (gastric secretion [2]) does the source give for `Cl.Cl.NCCc1c[nH]cn1` [Histamine dichloride, reference compound] here?
**A.** 0.025 mg/kg

**Q.** And the “dose for submaximum secretion test” value (gastric secretion [2])?
**A.** 0.008 mg/kg

**Q.** With `NCCc1nnc(N)s1` [dihydrochloride of 2-amino-5-(2-aminoethyl)-1,3,4-thiadiazole] as the molecule, how does the “stability of aqueous solution” value [3] read?
**A.** stable over prolonged periods of time

**Q.** What about the hygroscopicity ([3]; powder) of the same molecule?
**A.** poor hygroscopicity

**Q.** And the “reaction (acidity) of solution” value ([3]; solutions before neutralization to pH 6 to 7)?
**A.** strongly acidic reaction

**Q.** And the solubility in water ([3]; water)?
**A.** readily soluble in water

**Q.** Which results are given for `NCCc1cc[nH]n1` [histalog, 3-(5)-(2-aminoethyl)pyrazole, reference compound]?
**A.** EC50 (H1 -receptors): 58.9 µM; side effects ([4]; in vivo): side effects are observed far less frequently than in the case of histamine; dose for maximum secretion test (gastric secretion [2]): 1.7 mg/kg; dose for submaximum secretion test (gastric secretion [2]): 0.9 mg/kg; reduction of arterial pressure (arterial pressure [5]): 30 mm of mercury; production of maximum level of hydrochloric acid secretion in the stomach (H2 -ceptors): can produce a maximum level of hydrochloric acid secretion; gastric secretion after administration per os (dog's stomach): no gastric secretion; hypotensive effect, times as low as that of histamine [6]: 700 times; Emax (H2 -receptors [7]): 16%; EC50 (H2 -receptors [8]): 15.8 µM; secretory response of the stomach (gastric secretion [1]; humans, parenteral, 1 to 5 mg/kg): maximum secretory response of the stomach; secretory effect per os (gastric secretion [1]): no secretory effect is produced; capability of stimulating gastric secretion, times less effective than histamine (gastric secretion [1]; relative to histamine): 70 times

**Q.** Which results are given for `NCCc1c[nH]cn1` [histamine, reference compound]?
**A.** Free Acidity [9]: 81.7+21 units; HCl Output [9]: 12+0.4 milliequivalents per hour; Peak HCl Output [9]: 8.8+0.2 milliequivalents; Total Acidity [9]: 92.0+23 units; side effects ([4]; patients): reddening of the skin, nausea, vomiting, headache, dizziness, bronchospasm, edema of the rima vocalis, hypotension, and shocks; % of difference (fluctuations) of total acidity, first and second tests (total acidity): 0-53%; Average difference of total acidity (total acidity): 33%; reduction of arterial pressure (arterial pressure [5]): 100 mm of mercury; production of maximum level of hydrochloric acid secretion in the stomach (H2 -ceptors): can produce a maximum level of hydrochloric acid secretion; Chymosin Output ([10]; 1st hour (basal secretion)): 16.0 ± 0.008 units per hour; Pepsin Output ([10]; 1st hour (basal secretion)): 3.7 ± 1.2 units per hour; Secretion, milliequivalents per hour ([10]; 1st hour (basal secretion)): 7.0 ± 1.2 Milliequivalents per hour; Chymosin Output ([10]; 2nd hour): 16.4 ± 0.04 units per hour; Pepsin Output ([10]; 2nd hour): 4.8 ± 3.0 units per hour; Secretion, milliequivalents per hour ([10]; 2nd hour): 19.4 ± 1.6 Milliequivalents per hour; reduction of arterial pressure (arterial pressure [11]): 40 mm of mercury; gastric secretion after administration per os (dog's stomach): no gastric secretion; Emax (H2 -receptors [7]): 100%; secretory effect per os (gastric secretion [1]): no secretory effect is produced

**Q.** With `CNC(=S)NCCSCc1nc[nH]c1C` [methiamide] as the molecule, how does the “prevention of thidazine secretory effect” value (H2 -receptors [12]) read?
**A.** completely prevented

**Q.** What does the source list for `CSCC[C@H](NC(=O)[C@H](Cc1c[nH]c2ccccc12)NC(=O)CCNC(=O)OC(C)(C)C)C(=O)N[C@@H](CC(=O)O)C(=O)N[C@@H](Cc1ccccc1)C(N)=O` [pentagastrin, reference compound]?
**A.** side effects ([4]; patients): can produce allergic and anaphylactic reactions as a result of repeated administrations; Chymosin Output ([10]; 1st hour (basal secretion)): 157.3 ± 5.9 units per hour; Pepsin Output ([10]; 1st hour (basal secretion)): 3.3 ± 0.8 units per hour; Secretion, milliequivalents per hour ([10]; 1st hour (basal secretion)): 7.4 ± 0.8 Milliequivalents per hour; Pepsin Output ([10]; 2nd hour): 19.3 ± 3.8 units per hour; Secretion, milliequivalents per hour ([10]; 2nd hour): 24.8 ± 1.5 Milliequivalents per hour; HCl Concentration ([13]; 1st hour (basal secretion)): 35.3 milliequivalents per liter; HCl Concentration ([13]; 2nd hour (response to drug)): 94.0 milliequivalents per liter; Gastric Juice, Δ% ([13]; 2nd versus 1st hour): +63.7%; Hourly HCl output, Δ% ([13]; 2nd versus 1st hour): +345.9%; Hourly HCl output ([13]; 1st hour (basal secretion)): 3.7 milliequivalents per hour; Hourly HCl output ([13]; 2nd hour (response to drug)): 16.5 milliequivalents per hour; Gastric Juice ([13]; pentagastrin 6 mg/kg, 1st hour (basal secretion)): 106.3 ml per hour; Gastric Juice ([13]; pentagastrin 6 mg/kg, 2nd hour (response to drug)): 174.0 ml per hour; HCl Concentration, Δ% ([13]; pentagastrin 6 mg/kg, 2nd versus 1st hour): +166.3%; secretory effect per os (gastric secretion [1]): no secretory effect is produced; duration of effect of a single dose (gastric secretion [1]; single dose): does not last long; level of secretion (gastric secretion [1]; sufficient dose): can produce a maximum level of secretion
